Measurements: ChEMBL document CHEMBL4007391, “Tackling Fungal Resistance by Biofilm Inhibitors” (J Med Chem, 2017)
pIC50: −log10 of the molar value. Values after ≈ are worked out from the molar mass of the structure shown.

Assays:
Candida albicans [1] = experiment: Antibiofilm activity against Candida albicans SC5314 clinical isolates after 24 hrs by XTT assay; assay type: functional; conditions: Candida albicans, SC5314, 24 h
Candida albicans [2] = experiment: Antifungal activity against Candida albicans by broth dilution assay; assay type: functional
Candida albicans [3] = experiment: Antibiofilm activity against Candida albicans SC5314 after 24 hrs by XTT assay; assay type: functional; conditions: SC5314, 24 h
[4] = Cytotoxicity against human HepG2 assessed as reduction in cell viability after 24 hrs by CellTiter-Glo luminescent assay; assay type: cell-based; conditions: HepG2 cells
Candida albicans [5] = experiment: Antibiofilm activity against Candida albicans SC5314 after 24 hrs by Cell-Titer Blue assay; assay type: functional
Candida albicans [6] = experiment: Antibiofilm activity against Candida albicans DAY185 after 24 hrs by XTT assay; assay type: functional
Candida albicans [7] = experiment: Antifungal activity against Candida albicans DAY185 by CLSI method; assay type: functional
Candida albicans [8] = experiment: Antibiofilm activity against Candida albicans CAIF-100 after 24 hrs by Cell-Titer Blue assay; assay type: functional
Candida albicans [9] = experiment: Antifungal activity against Candida albicans KCTC 1940 clinical isolates after 7 days by two fold serial dilution method; assay type: functional; conditions: KCTC 1940, 168 h
Cryptococcus neoformans = experiment: Antifungal activity against Cryptococcus neoformans KCTC 7224 clinical isolates after 7 days by two fold serial dilution method; assay type: functional; conditions: KCTC 7224, 168 h
[10] = tested on: Trichophyton mentagrophytes; experiment: Antifungal activity against Trichophyton mentagrophytes KCTC 6077 clinical isolates after 7 days by two fold serial dilution method; assay type: functional; conditions: KCTC 6077, 168 h
Candida albicans [11] = experiment: Inhibition of filament formation of tet-NRG1 expressing Candida albicans after 2 to 24 hrs; assay type: functional
Candida albicans [12] = experiment: Antibiofilm activity against Candida albicans CAF2-1 after 48 hrs by Alamar blue assay; assay type: functional; conditions: CAF2-1, 48 h
Candida albicans [13] = experiment: Antibiofilm activity against Candida albicans SC5314 after 48 hrs by Alamar blue assay; assay type: functional; conditions: SC5314, 48 h
Candida albicans [14] = experiment: Antibiofilm activity against fluconazole-resistant Candida albicans 29E clinical isolates after 48 hrs by Alamar blue assay; assay type: functional
Candida albicans [15] = experiment: Antibiofilm activity against Candida albicans SC5314 after 24 hrs in presence of miconazole by Cell-Titer Blue assay; assay type: functional
Candida albicans [16] = experiment: Antifungal activity against fluconazole-resistant Candida albicans after 48 hrs by broth microdilution assay; assay type: functional
Candida albicans [17] = experiment: Inhibition of biofilm formation of fluconazole-resistant Candida albicans at 2 to 4 ug/ml after 24 hrs by XTT assay; assay type: functional
Candida albicans [18] = experiment: Disruption of biofilm of fluconazole-resistant Candida albicans at 8 to 32 ug/ml after 24 hrs by XTT assay; assay type: functional

SMILES: Cc1cc(OCCOCC[N+](C)(C)Cc2ccccc2)ccc1C(C)(C)CC(C)(C)C
- pIC50 (Candida albicans [1]): 5.05

SMILES: COc1cc(/C=C/c2ccc(O)cc2)cc(OC)c1 [PTEROSTILBENE]
- MIC80 (Candida albicans [2]): 32 µg/mL (≈ 125 µM)

SMILES: CC1OC(CC(=O)O)Cc2c(O)c3c(c(O)c21)C(=O)C=C(C1=CC(=O)c2c(O)c4c(c(O)c2C1=O)CC(CC(=O)O)OC4C)C3=O (stereo unspecified)
- pIC50 (Candida albicans [3]): 5.48
- CC50 at 24 h [4]: 96.1 µM

SMILES: Oc1c(Br)cc(Br)c2cccnc12 [BROXYQUINOLINE]
- MBEC2 (Candida albicans [5]): 1.2 µM

SMILES: Cc1ncc(CN2CCC3(CCCN(Cc4ccc(C(C)C)cc4)C3=O)C2)cn1 (stereo unspecified)
- pIC50 (Candida albicans [3]): 5.57
- CC50 at 24 h [4]: 62.7 to 104 µM

SMILES: CCCCCCCCCCCCCCCC[N+](C)(C)CCN(Cc1ccc(OC)cc1)c1ncccn1 [THONZONIUM BROMIDE]
- pIC50 (Candida albicans [1]): 4.89

SMILES: CCCCCCCCCC(=O)[C@@H]1C(=O)N[C@@H](CC(C)C)C(=O)N[C@H](C)C(=O)N2CCC[C@H]2C(=O)N[C@@H](C(C)C)C(=O)N[C@H]2CS[C@H]1CNC2=O
- pIC50 (Candida albicans [6]): 5.47
- MIC (Candida albicans [7]): > 200 µM

SMILES: CN(C)CC/C=C1/c2ccccc2Sc2ccc(Cl)cc21.Cl [CHLORPROTHIXENE HYDROCHLORIDE]
- MBIC50 (Candida albicans [8]): 17 µM

SMILES: Cc1cc(/C=C/c2ccc3cc(N(C)C)ccc3[n+]2C)c(C)n1-c1ccccc1.Cc1cc(/C=C/c2ccc3cc(N(C)C)ccc3[n+]2C)c(C)n1-c1ccccc1.O=C([O-])c1cc2ccccc2c(Cc2c(O)c(C(=O)[O-])cc3ccccc23)c1O [PYRVINIUM PAMOATE]
- MBEC2 (Candida albicans [5]): 3.9 µM
- pIC50 (Candida albicans [1]): 5.17

SMILES: Nc1cc(S(N)(=O)=O)ccc1SSc1ccc(S(N)(=O)=O)cc1N
- pIC50 (Candida albicans [3]): 5.46
- CC50 at 24 h [4]: 106 µM

SMILES: C=CCc1ccc(O)c(-c2ccc(O)c(CC=C)c2)c1 [HONOKIOL]
- MIC (Candida albicans [9]): 16 to 32 µg/mL (≈ 60.1 to 120 µM)
- MIC (Cryptococcus neoformans): 25 µg/mL (≈ 93.9 µM)
- MIC [10]: 25 µg/mL (≈ 93.9 µM)

SMILES: CCN(CC)CCN1c2ccccc2Sc2ccc3ccccc3c21
- CC50 at 24 h [4]: 50.8 µM
- pIC50 (Candida albicans [11]): 5.42

SMILES: C#CCN(C)CCCOc1ccc(Cl)cc1Cl.Cl [CLORGYLINE HYDROCHLORIDE]
- MBIC50 (Candida albicans [8]): 24 µM

SMILES: CO[C@H]1C[C@@H]2CC[C@@H](C)[C@@](O)(O2)C(=O)C(=O)N2CCCC[C@H]2C(=O)O[C@H]([C@H](C)C[C@@H]2CC[C@@H](O)[C@H](OC)C2)CC(=O)[C@H](C)/C=C(\C)[C@@H](O)[C@@H](OC)C(=O)[C@H](C)C[C@H](C)/C=C/C=C/C=C/1C [SIROLIMUS]
- CC50 at 24 h [4]: 67.2 µM
- pIC50 (Candida albicans [11]): 6.29

SMILES: CCCCCCCCCC(=O)[C@H]1C(=O)N[C@@H](CC(C)C)C(=O)N[C@H](C)C(=O)N2CCC[C@H]2C(=O)N[C@@H](C(C)C)C(=O)N[C@H]2CS[C@H]1CNC2=O
- pIC50 (Candida albicans [6]): < 3.70
- MIC (Candida albicans [7]): > 200 µM

SMILES: CN(C)CCOc1ccc(/C(=C(/CCCl)c2ccccc2)c2ccccc2)cc1.O=C(O)CC(O)(CC(=O)O)C(=O)O [TOREMIFENE CITRATE]
- MBIC50 (Candida albicans [8]): 19.5 µM

SMILES: CC[C@H](C)C1NC(=O)[C@@H](CCCN)NC(=O)[C@@H](NC(=O)[C@@H](NC(=O)[C@@H](CCC(=O)O)NC(=O)[C@H](CC(C)C)NC(=O)[C@@H]2CSC([C@@H](N)[C@@H](C)CC)=N2)[C@@H](C)CC)CCCCNC(=O)[C@H](CC(N)=O)NC(=O)[C@@H](CC(=O)O)NC(=O)[C@H](Cc2c[nH]cn2)NC(=O)[C@@H](Cc2ccccc2)NC1=O (stereo partly specified)
- pIC50 (Candida albicans [1]): 4.77

SMILES: C1CCC(C(CC2CCCCN2)C2CCCCC2)CC1.O=C(O)/C=C\C(=O)O (stereo unspecified) [PERHEXILINE MALEATE]
- MBIC50 (Candida albicans [8]): 39 µM

SMILES: CC[C@H](C)[C@H](N)C1=N[C@H](C(=O)N[C@@H](CC(C)C)C(=O)N[C@H](CCC(=O)O)C(=O)N[C@@H](C(=O)N[C@@H]2CCCCNC(=O)[C@H](CC(N)=O)NC(=O)[C@@H](CC(=O)O)NC(=O)[C@H](Cc3cnc[nH]3)NC(=O)[C@@H](Cc3ccccc3)NC(=O)[C@H]([C@@H](C)CC)NC(=O)[C@@H](CCCN)NC2=O)[C@@H](C)CC)CS1
- pIC50 (Candida albicans [3]): 5.67
- CC50 at 24 h [4]: 286 µM

SMILES: Cc1ccccc1OCc1n(CC(=O)OC2CC(C)CCC2C(C)C)c2ccccc2[n+]1C (stereo unspecified)
- pIC50 (Candida albicans [12]): 4.61 to 5.01
- pIC50 (Candida albicans [13]): 4.61 to 5.01
- pIC50 (Candida albicans [14]): 4.61 to 5.01

SMILES: CO[C@H]1O[C@@H]2O[C@@]3(C)CC[C@H]4[C@H](C)CC[C@@H]([C@H]1C)[C@@]24OO3
- fractional inhibitory concentration index (FICI) (Candida albicans [15]): 0.112

SMILES: CCCCCCCCCCCCCCCCOP(=O)([O-])OCC[N+](C)(C)C [MILTEFOSINE]
- MIC (Candida albicans [16]): 0.5 to 2 µg/mL (≈ 1.23 to 4.91 µM)
- inhibition (INH) (Candida albicans [17]): 90%
- inhibition (INH) (Candida albicans [18]): >90%

SMILES: Oc1c(Cl)cc(Cl)c(Cl)c1Cc1c(O)c(Cl)cc(Cl)c1Cl [HEXACHLOROPHENE]
- MBEC2 (Candida albicans [5]): 9.3 µM
- pIC50 (Candida albicans [1]): 5.29

SMILES: CN(C)c1ccc(C(=C2C=CC(=[N+](C)C)C=C2)c2ccc(N(C)C)cc2)cc1.[Cl-] [GENTIAN VIOLET]
- MBEC2 (Candida albicans [5]): 1.5 µM

SMILES: O=C1c2cccc(O)c2C(=O)c2c(O)cccc21 [DANTHRON]
- MBIC50 (Candida albicans [8]): 12 µM
